Where two headings read alike, the source gives them in different places.
What was measured:
[1] = target: T1, brain histamine H2 -receptor (Cavia porcellus, UniProt P47747); assay: Inhibition of 3H-tiotidine binding to guinea pig cerebral cortex membranes
T1 construct: from tissue; host or cells: guinea pig cerebral cortex membranes

[2] = target: T2, histamine H2 -receptor (Cavia porcellus, UniProt P47747); assay: Inhibition of histamine-induced tachycardia in the isolated guinea-pig right atrium; format: cell-based
T2 construct: a spontaneously beating isolated portion of the guinea pig right atrium; from tissue; host or cells: guinea pig right atrium
Protocol: In the guinea pig atrium test a spontaneously beating isolated portion of the guinea pig right atrium is secured under tension (300 mg) between an anchorage and a transducer in a 15 ml tissue bath and immersed in McEwens solution with constant aeration at a temperature of 37° C. The output from the transducer is amplified. Output is in turn fed to a flat bed recorder. Measured amounts of histamine are added to the tissue bath so that the histamine concentration increases step-wise until the rate of beating reaches a maximum. The tissue bath is washed out and filled with fresh McEwens solution containing compound under test. The solution is left in contact with the tissue for 60 min. and measured amounts of histamine are added again until a maximum rate is recorded. The assay is repeated with increasing concentrations of test compound and the dose of histamine giving 50% of maximum rate is noted. A dose ratio (DR) was calculated by comparing the concentrations of histamine required to produce 50% maximum response in the absence and in the presence of the antagonist. A plot of Log DR-1 against LOG D (the concentration of compound under test) is made and the point of intersection with the Log (DR-1) ordinate is taken as the measure of the activity (pA2 value).

[3] = target: T1, brain histamine H2 -receptor; assay: Inhibition of dimaprit stimulated cyclic AMP accumulation in guinea pig hippocampal slices; format: cell-based
[4] = system: pial artery dilatation induced by histamine; assay: Cat pial artery in situ: antagonism of dilatation induced by perivascularly applied histamine; format: in vivo
[5] = system: pial artery dilatation induced by histamine; conditions: cat, locally applied; Wahl & Kuschinsky; cited from earlier work
[6] = system: bicuculline injection induced convulsions; conditions: mice; cited from earlier work
[7] = system: leptazol-induced tonic extensor spasm; conditions: mice; cited from earlier work
[8] = system: maximal electroshock seizures; conditions: mice; cited from earlier work
[9] = Δ log P (log P octanol/water minus log P cyclohexane/water)
[10] = system: leptazol-induced tonic extensor spasm; assay: Anticonvulsant activity: leptazol (pentylenetetrazol)-induced convulsions in mice; format: in vivo; conditions: subcutaneously, dose-dependent (stated for Examples 5 and 6)
[11] = physchem; conditions: octanol/water
[12] = system: maximal electroshock seizures; assay: Anticonvulsant activity: maximal electroshock seizures in mice; format: in vivo; conditions: subcutaneously
[13] = Blood-brain barrier penetration in urethane-anaesthetised rats (radiolabelled compound, infusion); conditions: rat, intravenous bolus then infusion, approximately 2 μM blood concentrations, at least 2 hours; separate determinations
Protocol: The levels of compound and inulin in the blood are monitored and the infusion maintained for at least 2 hours until equilibria (or at least approximate blood plateaux) are achieved. The rat is exsanguinated to minimise blood contamination of the brain. […] The tissues are weighed and then dissolved in a tissue solubiliser, e.g. Soluene-100 overnight at 37° C. in glass vials. […] Glacial acetic acid is added to each vial in order to neutralise the soluene and reduce chemiluminescence. Dimilume-30 (15 ml) is added as the scintillant and the vials left for 12 hours in the scintillation counter in order to further reduce chemiluminescence prior to counting for activity.

[14] = 3H-tiotidine, guinea pig cerebral cortex membranes, read-out: pKi cortex (converted)
[15] = isolated guinea pig right atrium, 37° C., 60 min contact, histamine agonist, read-out: pA2 (converted)
[16] = dimaprit stimulated cyclic AMP accumulation, guinea pig hippocampal slices, read-out: pKi (converted)

T2 sequence (P47747 whole entry): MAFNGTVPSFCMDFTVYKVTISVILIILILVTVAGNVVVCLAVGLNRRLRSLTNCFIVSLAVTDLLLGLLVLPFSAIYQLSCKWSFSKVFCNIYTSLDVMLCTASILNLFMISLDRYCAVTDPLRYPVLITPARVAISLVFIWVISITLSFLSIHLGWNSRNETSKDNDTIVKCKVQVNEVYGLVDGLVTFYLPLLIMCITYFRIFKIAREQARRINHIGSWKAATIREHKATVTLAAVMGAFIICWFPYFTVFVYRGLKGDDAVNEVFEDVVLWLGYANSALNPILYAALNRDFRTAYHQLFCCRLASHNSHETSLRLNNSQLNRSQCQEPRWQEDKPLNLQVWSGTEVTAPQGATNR
T1 sequence (P47747 whole entry): as above

Ki [1, 14] [nM]	Kb [2, 15] [nM]	SMILES	also measured
631	1260	CN(C)Cc1cccc(OCCCNc2nc3ccccc3s2)c1 [Example 21, 2-[3-[3-(Dimethylaminomethyl)phenoxy]propylamino]benzthiazole]	–
100	316	c1cc(CN2CCCCC2)cc(OCCCc2nc3ccccc3[nH]2)c1 [Example 27, 2-[3-[3-(Piperidinomethyl)phenoxy]propyl]-1H-benzimidazole]	–
126	2510	Cc1nc(NCCCOc2cccc(CN3CCCCC3)c2)sc1C [Example 14, 2-[3-[3-(Piperidinomethyl)phenoxy]propylamino]-4,5-dimethylthiazole]	–
3160	2000	c1cnc(NCCCOc2cccc(CN3CCCCC3)c2)nc1 [Example 4, 2-[3-[3-(Piperidinomethyl)phenoxy]propylamino]pyrimidine]	Ki [3, 16]: 22900 nM
316	100	c1cc(CN2CCCC2)cc(OCCCNc2nc3ccccc3s2)c1 [Example 22, 2-[3-[3-(Pyrrolidinomethyl)phenoxy]propylamino]benzthiazole]	–
398	25100	Cc1cc2nc(NCCCOc3cccc(CN4CCCCC4)c3)sc2cc1C [Example 24, 2-[3-[3-(Piperidinomethyl)phenoxy]propylamino]-5,6-dimethylbenzthiazole]	–
200	2000	CCOc1cc(NCCCOc2cccc(CN3CCCCC3)c2)nc2ccccc12 [Example 8, 2-[3-[3-(Piperidinomethyl)phenoxy]propylamino]-4-ethoxyquinoline]	–
100	794	c1ccc(NCCCOc2cccc(CN3CCCCC3)c2)nc1 [Example 6, 2-[3-[3-(Piperidinomethyl)phenoxy]propylamino]pyridine]	Ki [3, 16]: 56.2 nM; doses protecting against leptazol-induced tonic extensor spasm [10]: 30 to 100 mg/kg; logP [11]: 2.88; doses protecting against maximal electroshock seizures [12]: 30 to 100 mg/kg
39.8	398	c1cc(CN2CCCCC2)cc(OCCCNc2nccc3ccccc23)c1 [Example 12, 1-[3-[3-(Piperidinomethyl)phenoxy]propylamino]isoquinoline]	–
79.4	63.1	c1cc(CN2CCCCC2)cc(OCCCNc2nc3ccccc3o2)c1 [Example 1, 2-[3-[3-(Piperidinomethyl)phenoxy]propylamino]benzoxazole]	Ki [3, 16]: 21.9 nM; doses protecting against leptazol-induced tonic extensor spasm [10]: 10 to 100 mg/kg; doses protecting against maximal electroshock seizures [12]: 30 to 100 mg/kg
501	794	COc1cccc(NCCCOc2cccc(CN3CCCCC3)c2)n1 [Example 7, 2-[3-[3-(Piperidinomethyl)phenoxy]propylamino]-6-methoxypyridine]	–
63.1	39.8	c1cc(CN2CCCCC2)cc(OCCCNc2nccs2)c1 [Example 9, 2-[3-[3-(Piperidinomethyl)phenoxy]propylamino]thiazole]	Ki [3, 16]: 63.1 nM
31.6	7940	Cn1c(NCCCOc2cccc(CN3CCCCC3)c2)nc2ccccc21 [Example 10, 2-[3-[3-(Piperidinomethyl)phenoxy]propylamino]-1-methylbenzimidazole]	Ki [3, 16]: 2 nM
25.1	63.1	c1cc(CN2CCCCC2)cc(OCCCNc2nc3ccccc3[nH]2)c1 [Description 1, 2-[3-[3-(Piperidinomethyl)phenoxy]propylamino]benzimidazole]	Ki [3, 16]: 37.2 nM

More lines, now with the values behind:

SMILES	Ki [1, 14] [nM]	Kb [2, 15] [nM]	also measured
c1cc(CN2CCCCC2)cc(OCCNc2nc3ccccc3s2)c1 [Example 16, 2-[2-[3-(Piperidinomethyl)phenoxy]ethylamino]benzthiazole]	794	6310	–
CN/C(=N/CCSCc1nc[nH]c1C)NC#N [cimetidine, reference compound]	–	–	antagonism of pial artery dilatation induced by histamine ([4]; intravenous): failed to antagonise; antagonism of pial artery dilatation induced by histamine [5]: antagonises the pial artery dilatation
O=C1NC(=O)C(c2ccccc2)(c2ccccc2)N1 [phenytoin sodium]	–	–	antagonism of bicuculline convulsions, known drug [6]: antagonise; antagonism of leptazol (pentylenetetrazol) convulsions, known drug [7]: antagonise; antagonism of maximal electroshock (MES) convulsions, known drug [8]: antagonise
c1cc(CN2CCCCC2)cc(OCCCNc2ccc3ccccc3n2)c1 [Example 3, 2-[3-[3-(Piperidinomethyl)phenoxy]propylamino]quinoline]	12.6	631	Ki [3, 16]: 10.7 nM
c1cc(CN2CCCCC2)cc(OCCCNc2ncnc3ccccc23)c1 [Example 19, 4-[3-[3-(Piperidinomethyl)phenoxy]propylamino]quinazoline]	25.1	20	–
c1cc(CN2CCCCC2)cc(OCCCCNc2nc3ccccc3s2)c1 [Example 17, 2-[4-[3-(Piperidinomethyl)phenoxy]butylamino]benzthiazole]	158	126	–
c1cc(CN2CCCCCC2)cc(OCCCNc2nc3ccccc3s2)c1 [Example 23, 2-[3-[3-(Hexahydroazepinomethyl)phenoxy]propylamino]benzthiazole]	1260	316	–
c1cc(CN2CCCCC2)cc(OCCCNc2nc3ccccc3s2)c1 [Example 5, 2-[3-[3-(Piperidinomethyl)phenoxy]propylamino]benzthiazole]	–	–	Ki [1]: 79.4 nM; Δ log P [9]: 1.74; antagonism of pial artery dilatation induced by histamine ([4]; intravenous): antagonised the pial artery dilatation; antagonism of pial artery dilatation induced by histamine ([4]; locally applied): antagonised the pial artery dilatation; Ki [3]: 15.8 nM; doses protecting against leptazol-induced tonic extensor spasm [10]: 10 to 30 mg/kg; logP [11]: 1.46; doses protecting against maximal electroshock seizures [12]: 30 to 100 mg/kg; Kb [2]: 25.1 nM
CN(C)CCCN1c2ccccc2CCc2ccccc21 [Imipramine]	–	–	molar ratio of compound in the brain to compound in the blood [13]: 3.5
COc1cccnc1NCCCOc1cccc(CN2CCCCC2)c1 [Example 18, 2-[3-[3-(Piperidinomethyl)phenoxy]propylamino]-3-methoxypyridine]	39.8	631	–
c1cc(CN2CCCCC2)cc(OCCc2c[nH]cn2)c1 [Example 25, 4(5)-[2-[3-(Piperidinomethyl)phenoxy]ethyl]imidazole]	794	25100	–
c1cc(CN2CCCCC2)cc(OCCc2nc3ccccc3[nH]2)c1 [Example 26, 2-[2-[3-(Piperidinomethyl)phenoxy]ethyl]-1H-benzimidazole]	3980	20000	–
c1cc(CN2CCCCC2)cc(OCCCCc2nc3ccccc3[nH]2)c1 [Example 28, 2-[4-[3-(Piperidinomethyl)phenoxy]butyl]-1H-benzimidazole]	39.8	126	–
c1cncc(NCCCOc2cccc(CN3CCCCC3)c2)c1 [Example 11, 3-[3-[3-(Piperidinomethyl)phenoxy]propylamino]pyridine]	794	–	–
